In US9403830B2, “Inhibitors of leukotriene production” (Boehringer Ingelheim International GmbH, priority 2012, dated 2016):

Key:
human LTA4 hydrolase = target: T1, human LTA4 hydrolase (Homo sapiens, UniProt P09960); assay: LTA4H Enzyme assay (peptidase, Arg-AMC cleavage); assay type: biochemical; conditions: LTA4H enzyme 1 nM, Arg-AMC substrate 50 μM, room temperature 1 h, fluorescence 380/460 nm
T1 sequence (P09960 1-611): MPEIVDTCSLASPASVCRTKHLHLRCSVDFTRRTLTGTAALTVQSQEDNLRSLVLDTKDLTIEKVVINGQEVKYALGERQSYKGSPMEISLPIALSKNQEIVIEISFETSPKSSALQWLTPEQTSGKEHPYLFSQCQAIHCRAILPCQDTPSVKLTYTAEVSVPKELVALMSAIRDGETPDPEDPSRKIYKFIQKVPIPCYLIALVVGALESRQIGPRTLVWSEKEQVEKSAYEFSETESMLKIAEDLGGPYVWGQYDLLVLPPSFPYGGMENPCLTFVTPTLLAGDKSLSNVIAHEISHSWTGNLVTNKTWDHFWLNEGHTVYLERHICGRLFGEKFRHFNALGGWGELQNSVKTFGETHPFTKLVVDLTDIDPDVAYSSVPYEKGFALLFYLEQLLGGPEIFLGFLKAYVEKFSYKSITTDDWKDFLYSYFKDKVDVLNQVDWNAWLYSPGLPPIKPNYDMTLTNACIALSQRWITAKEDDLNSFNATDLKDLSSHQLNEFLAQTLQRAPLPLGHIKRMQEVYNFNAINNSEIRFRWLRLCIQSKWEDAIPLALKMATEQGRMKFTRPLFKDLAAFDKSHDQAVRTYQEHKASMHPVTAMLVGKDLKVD
Procedure: The compounds of the invention are assessed for the ability to interact with human LTA4 hydrolase in an enzymatic assay that measures the ability of the enzyme to cleave the peptide bond of arginyl-aminomethylcoumarin (Arg-AMC). LTA4H Enzyme (1 nM final), Arg-AMC substrate (50 μM final), and compound are combined in a reaction buffer (50 mM Tris-HCl (pH 7.5), 100 mM KCl, 0.5% bovine serum albumin) at room temperature for 1 h. The formation of product is assessed by measuring the fluorescence of aminomethylcoumarin product (excitation wavelength 380 nm/emission wavelength 460 nm). In general, the preferred potency range (IC50) of compounds in the LTA4H Enzyme assay is between 0.1 nM to 10 μM, the more preferred potency range is 0.1 nM to 0.1 μM, and the most preferred potency range is 0.1 nM to 10 nM.

[1] = test system: LTB4 synthesis in human whole blood; assay: human whole blood (HWB) assay, inhibition of LTB4 production; assay type: cell-based; conditions: heparinized human whole blood, calcimycin 20 μM stimulation, plasma LTB4
Procedure: The compounds of the invention are additionally tested in a human whole blood (HWB) assay to determine their ability to inhibit the synthesis of LTB4 in a cellular system. Compounds are combined with heparinized human whole blood and incubated for 15 minutes at 37° C. Calcimycin (20 μM final, prepared in phosphate-buffered saline, pH 7.4) is then added and the mixture is incubated for another 30 minutes at 37° C. The samples are centrifuged for 5 min at low speed (1500×g) and the plasma layer is removed. Plasma LTB4 concentrations are then measured using an antibody-based homogenous time-resolved fluorescence method (CisBio, Bedford, Mass.). In general, the preferred potency range (IC50) of compounds in the HWB assay is between 10 nM to 10 μM, the more preferred potency range is 10 nM to 1 μM, and the most preferred potency range is 10 nM to 100 nM.

Row | SMILES | IC50 (human LTA4 hydrolase) | IC50 [1]
1 | CC(C)C(=O)N1CCN(Cc2ccc3cc(Oc4ccc(-c5ccn[nH]5)cn4)ccc3n2)CC1 [Example 26, 2-Methyl-1-(4-{6-[5-(2H-pyrazol-3-yl)-pyridin-2-yloxy]-quinolin-2-ylmethyl}-piperazin-1-yl)-propan-1-one] | 0.57 nM | 130 nM
2 | O=C(CO)N1CCN(Cc2ccc3cc(Oc4ccc(-c5ccn[nH]5)cn4)ccc3n2)CC1 [Example 27, 2-Hydroxy-1-(4-{6-[5-(2H-pyrazol-3-yl)-pyridin-2-yloxy]-quinolin-2-ylmethyl}-piperazin-1-yl)-ethanone] | 0.72 nM | 150 nM
3 | COCC(=O)N1CCN(Cc2ccc3cc(Oc4ccc(-c5ccn[nH]5)cn4)ccc3n2)CC1 [Example 28, 2-methoxy-1-(4-{6-[5-(2H-pyrazol-3-yl)-pyridin-2-yloxy]-quinolin-2-ylmethyl}-piperazin-1-yl)-ethanone] | 0.87 nM | 150 nM
4 | CCC(=O)N1CCN(Cc2ccc3cc(Oc4ccc(-c5ccn[nH]5)cn4)ccc3n2)CC1 [Example 29, 1-(4-{6-[5-(2H-Pyrazol-3-yl)-pyridin-2-yloxy]-quinolin-2-ylmethyl}-piperazin-1-yl)-propan-1-one] | 0.66 nM | 190 nM
5 | O=C1CCC2(CCN(Cc3ccc4cc(Oc5ccc(-c6ccn[nH]6)cn5)ccc4n3)CC2)N1 [Example 30, 8-{6-[5-(2H-Pyrazol-3-yl)-pyridin-2-yloxy]-quinolin-2-ylmethyl}-1,8-diaza-spiro[4.5]decan-2-one] | 1.1 nM | 190 nM
6 | N#CCC(=O)N1CCN(Cc2ccc3cc(Oc4ccc(-c5ccn[nH]5)cn4)ccc3n2)CC1 [Example 31, 3-Oxa-3-(4-{6-[5-(2H-pyrazol-3-yl)-pyridin-2-yloxy]-quinolin-2-ylmethyl}-piperazin-1-yl)-propionitrile] | 1 nM | 200 nM
7 | CC(=O)N1CC2CN(Cc3ccc4cc(Oc5ccc(-c6ccn[nH]6)cn5)ccc4n3)CC2C1 (stereo not drawn) [Example 32, 1-(5-{6-[5-(2H-Pyrazol-3-yl)-pyridin-2-yloxy]-quinolin-2-ylmethyl}-hexahydro-pyrrolo[3,4-c]pyrrol-2-yl)-ethanone] | 0.85 nM | 210 nM
8 | CN(C(=O)CO)C1CCN(Cc2ccc3cc(Oc4ccc(-c5ccn[nH]5)cn4)ccc3n2)CC1 [Example 33, 2-Hydroxy-N-methyl-N-(1-{6-[5-(2H-pyrazol-3-yl)-pyridin-2-yloxy]-quinolin-2-ylmethyl}-piperidin-4-yl)-acetamide] | 0.77 nM | 230 nM
9 | C[C@@H](NCc1ccc2cc(Oc3ccc(-c4ccn[nH]4)cn3)ccc2n1)C(N)=O [Example 34, (R)-2-({6-[5-(2H-Pyrazol-3-yl)-pyridin-2-yloxy]-quinolin-2-ylmethyl}-amino)-propionamide] | 5.7 nM | 800 nM
10 | NC(=O)[C@H]1[C@@H]2CN(Cc3ccc4cc(Oc5ccc(-c6ccn[nH]6)cn5)ccc4n3)C[C@@H]21 [Example 35, (1α,5α,6α)-3-{6-[5-(2H-Pyrazol-3-yl)-pyridin-2-yloxy]-quinolin-2-ylmethyl}-3-aza-bicyclo[3.1.0]hexane-6-carboxylic acid amide] | 0.49 nM | 220 nM
11 | O=C(CO)N1C2CCC1CN(Cc1ccc3cc(Oc4ccc(-c5ccn[nH]5)cn4)ccc3n1)C2 [Example 44, 2-Hydroxy-1-(3-{6-[5-(2H-pyrazol-3-yl)-pyridin-2-yloxy]-quinolin-2-ylmethyl}-3,8-diaza-bicyclo[3.2.1]oct-8-yl)-ethanone] | 0.71 nM | 410 nM

Results, then the compound that gave them:

Row | IC50 (human LTA4 hydrolase) | IC50 [1] | SMILES
12 | 0.98 nM | 240 nM | CC(=O)N1CC(CN(C)Cc2ccc3cc(Oc4ccc(-c5ccn[nH]5)cn4)ccc3n2)C1 [Example 36, 1-{3-[(Methyl-{6-[5-(2H-pyrazol-3-yl)-pyridin-2-yloxy]-quinolin-2-ylmethyl}-amino)-methyl]-azetidin-1-yl}-ethanone]
13 | 0.86 nM | 270 nM | CC(=O)N(C)C1CCN(Cc2ccc3cc(Oc4ccc(-c5ccn[nH]5)cn4)ccc3n2)CC1 [Example 37, N-Methyl-N-(1-{6-[5-(2H-pyrazol-3-yl)-pyridin-2-yloxy]-quinolin-2-ylmethyl}-piperidin-4-yl)-acetamide]
14 | 0.76 nM | 280 nM | C[C@@H]1CN(C(=O)CO)CCN1Cc1ccc2cc(Oc3ccc(-c4ccn[nH]4)cn3)ccc2n1 [Example 38, 2-Hydroxy-1-((R)-3-methyl-4-{6-[5-(2H-pyrazol-3-yl)-pyridin-2-yloxy]-quinolin-2-ylmethyl}-piperazin-1-yl)-ethanone]
15 | 2 nM | 280 nM | CS(=O)(=O)CC(=O)N1CCN(Cc2ccc3cc(Oc4ccc(-c5ccn[nH]5)cn4)ccc3n2)CC1 [Example 39, 2-Methanesulfonyl-1-(4-{6-[5-(2H-pyrazol-3-yl)-pyridin-2-yloxy]-quinolin-2-ylmethyl}-piperazin-1-yl)-ethanone]
16 | 0.47 nM | 300 nM | CC(C)(O)CNC(=O)[C@H]1[C@@H]2CN(Cc3ccc4cc(Oc5ccc(-c6ccn[nH]6)cn5)ccc4n3)C[C@@H]21 [Example 40, (1α,5α,6α)-3-{6-[5-(2H-Pyrazol-3-yl)-pyridin-2-yloxy]-quinolin-2-ylmethyl}-3-aza-bicyclo[3.1.0]hexane-6-carboxylic acid (2-hydroxy-2-methyl-propyl)-amide]
17 | 0.99 nM | 320 nM | CC(=O)NC[C@@H]1[C@H]2CN(Cc3ccc4cc(Oc5ccc(-c6ccn[nH]6)cn5)ccc4n3)C[C@@H]12 [Example 41, N-((1α,5α,6α)-3-{6-[5-(2H-Pyrazol-3-yl)-pyridin-2-yloxy]-quinolin-2-ylmethyl}-3-aza-bicyclo[3.1.0]hex-6-ylmethyl)-acetamide]
18 | 0.88 nM | 360 nM | CC(=O)N1CCN(Cc2ccc3cc(Oc4ccc(-c5ccn[nH]5)cn4)ccc3n2)[C@H](CO)C1 [Example 42, 1-((S)-3-Hydroxymethyl-4-{6-[5-(2H-pyrazol-3-yl)-pyridin-2-yloxy]-quinolin-2-ylmethyl}-piperazin-1-yl)-ethanone]
19 | 3.9 nM | 380 nM | NC(=O)N1CCN(Cc2ccc3cc(Oc4ccc(-c5ccn[nH]5)cn4)ccc3n2)CC1 [Example 43, 4-{6-[5-(2H-Pyrazol-3-yl)-pyridin-2-yloxy]-quinolin-2-ylmethyl}-piperazine-1-carboxylic acid amide]
20 | 2.8 nM | 420 nM | O=C(CNCc1ccc2cc(Oc3ccc(-c4ccn[nH]4)cn3)ccc2n1)N1CCCC1 [Example 45, 2-({6-[5-(2H-Pyrazol-3-yl)-pyridin-2-yloxy]-quinolin-2-ylmethyl}-amino)-1-pyrrolidin-1-yl-ethanone]
21 | 1.6 nM | 540 nM | CC1(NC(=O)CO)CCN(Cc2ccc3cc(Oc4ccc(-c5ccn[nH]5)cn4)ccc3n2)CC1 [Example 46, 2-Hydroxy-N-(4-methyl-1-{6-[5-(2H-pyrazol-3-yl)-pyridin-2-yloxy]-quinolin-2-ylmethyl}-piperidin-4-yl)-acetamide]
22 | 1.3 nM | 570 nM | CN(CC(N)=O)Cc1ccc2cc(Oc3ccc(-c4ccn[nH]4)cn3)ccc2n1 [Example 47, 2-(Methyl-{6-[5-(2H-pyrazol-3-yl)-pyridin-2-yloxy]-quinolin-2-ylmethyl}-amino)-acetamide]
23 | 2.1 nM | 740 nM | c1cc(-c2ccc(Oc3ccc4nc(CN5CCCC6(COC6)C5)ccc4c3)nc2)[nH]n1 [Example 48, 2-(2-Oxa-6-aza-spiro[3.5]non-6-ylmethyl)-6-[5-(2H-pyrazol-3-yl)-pyridin-2-yloxy]-quinoline]
24 | 8.9 nM | 860 nM | O=C1NCC[C@@H]1NCc1ccc2cc(Oc3ccc(-c4ccn[nH]4)cn3)ccc2n1 [Example 49, (S)-3-({6-[5-(2H-Pyrazol-3-yl)-pyridin-2-yloxy]-quinolin-2-ylmethyl}-amino)-pyrrolidin-2-one]
